Experimental data from patent US9078897B1, “Concentrated, inhalable antibiotic formulation” (ARADIGM CORPORATION, priority 2006, dated 2015).

Columns and labels:
P. aeruginosa = conditions: cited from earlier work
IL-1 = IL-1 levels in lungs after 14 days of inhalation; type: in vivo, rats; conditions: then 28 day recovery evaluation
From the text: The explanation for this surprising effect may be that the presence of free ciprofloxacin in the lung attenuates the release of cytokines which attract macrophages into the lung.

Compound | activity against P. aeruginosa (P. aeruginosa) | levels of IL-1 (IL-1)
CC[C@H]1OC(=O)[C@H](C)[C@@H](O[C@H]2C[C@@](C)(OC)[C@@H](O)[C@H](C)O2)[C@H](C)[C@@H](O[C@@H]2O[C@H](C)C[C@H](N(C)C)[C@H]2O)[C@](C)(O)C[C@@H](C)CN(C)[C@H](C)[C@@H](O)[C@]1(C)O [azithromycin] | no direct activity | –
O=C(O)c1cn(C2CC2)c2cc(N3CCNCC3)c(F)cc2c1=O [free ciprofloxacin, ciprofloxacin] | – | return to baseline values
NC[C@H]1O[C@H](O[C@H]2[C@H](O)[C@@H](O[C@H]3O[C@H](CO)[C@@H](O)[C@H](N)[C@H]3O)[C@H](N)C[C@@H]2N)[C@H](N)C[C@@H]1O [tobramycin] | possesses activity | –
